Laboratory results from patent publication US20090298707A1, “SPARSE MATRIX SYSTEM AND METHOD FOR IDENTIFICATION OF SPECIFIC LIGANDS OR TARGETS” (priority 2008, published 2009).

Legend:
[1] = per amino acid; cited from earlier work
[2] = test system: immobilized S. aureus cells; assay: Fluorescence microscopy binding of labeled peptides to immobilized bacteria, S. aureus; design: species or system Staphylococcus aureus; details: for Binding to immobilized S. aureus relative to peptides of the original pilot library: refined libraries, fluorescence images; for Binding to S. aureus (fluorescent staining): 25 μM fluorescein-labeled peptide, 10 minutes, immobilized cells
Description: Peptide samples were prepared at a concentration of 25 μM for screening against a variety of organisms by exposing immobilized bacteria to labeled peptides. For bacterial cell binding assays, cells were grown overnight, washed, and immobilized in a polylysine-coated 96-well plate. Fluorescein-labeled peptide samples were applied to immobilized bacteria, incubated for 10 minutes and washed extensively to remove unbound peptide. Samples were visualized by fluorescence microscopy. For each peptide, both brightfield and fluorescence images were collected, and camera and microscope settings were not altered between images. The locations of cells and background regions were determined using the brightfield images; those regions were then selected in the fluorescence images for quantitation of pixel values for determination of relative fluorescence intensities (represented as bacterial fluorescence/background fluorescence) using the GNU Image Manipulation Program (The GIMP, see, e.g., www.gimp.org).
The following bacterial species and strains were used: Lactobacillus casei (strain), Escherichia coli (W3110), Enterococcus faecium (strain), Streptococcus mutans (UA140), Streptococcus mitis (ATCC 903), Streptococcus gordonii (NY101), Pseudomonas aeruginosa(strain K), Klebsiella pneumoniae (KAY2026), Myxococcus xanthus (Strains DK1622, wildtype, and difA, exopolysaccharide deficient^21), Micrococcus luteus (strain MS2, a community isolate), Staphylococcus epidermidis (strain), and Staphylococcus aureus(strains, and AM1, a methicillin/oxacillin-resistant community isolate).
For isolation of community-acquired S. aureus and M. luteus strains (strains MS2 and AM1), swabs were collected from the nostrils of several volunteers and streaked on Brain-Heart Infusion (BHI) agar and incubated at 37° C. overnight. Yellow colonies were isolated and typed (Microbial ID, Inc., Newark, Del.). Antibiotic resistance was assayed by plating on BHI in the presence of various antibiotics. Commercially available antibiotic susceptibility test disks were used to assay for oxacillin resistance (BD Biosciences), according to the manufacturer's instructions. Due to the difficulty of obtaining methicillin, oxacillin resistance was used as a proxy for methicillin resistance in isolated strains.^22
The peptides comprising these two refined libraries were synthesized, labeled, and screened against immobilized S. aureus cells exactly as for the original pilot library.
To examine the specificities of the peptides identified in this experiment, a diverse panel of various strains of bacteria was assembled, consisting of Lactobacillus casei, Escherichia coli, Enterococcus faecalis, Streptococcus mutans, Streptococcus mitis, Streptococcus gordonii, Pseudomonas aeruginosa, Klebsiella pneumoniae, Micrococcus luteus (strain MS2), Staphylococcus epidermidis, and two strains of Staphylococcus aureus: a methicillin/oxacillin-sensitive community isolate and our methicillin/oxacillin-resistant community isolate of (strain AM1). Peptides 3C and 4D from the original pilot library were screened for binding against these bacteria by fluorescence microscopy, and images were analyzed as before.

M. luteus MS2 = assay: Pulldown binding assay, Langmuir isotherm fit, M. luteus; design: species or system Micrococcus luteus; details: for Langmuir Affinity (Ka): association constant from Langmuir isotherm fit; for Monolayer Concentration (N): maximum surface concentration from Langmuir fit
Description: (§1) To investigate whether the changes in the observed level of binding were due to changes in the affinities or avidities of the refined peptides for cell surfaces, binding curves were generated for selected peptides and fit to the Langmuir isotherm (where possible), the simplest model describing binding to surfaces (peptides showing either complex or nonspecific binding isotherms were excluded from this analysis).
(§2) Measurements were taken of the absorbance of the labeled peptide at 488 nm (the peak absorbance of the fluorescein label) before and after exposure to the cells. The amount of peptide bound was calculated by comparing the ratio of the final (Af) and initial (Ai) absorbances to the initial concentration (C0)[Cbound=C0(1−(Af/Ai))]. Bacterial surface area per sample was calculated using a stage micrometer to determine the average cell diameter for each species (1.0+/−0.1 μm for S. aureus AM1, 2.7+/−0.1 μm for M. luteus MS2), treating individual cells as discrete spheres. Average cell concentration per unit OD600 was calculated using a hemocytometer.
(§3) Plots were then generated of the amount of peptide bound per m^2 of bacterial surface area vs. the concentration of unbound peptide at equilibrium. Where possible, the resulting isotherms were fit to the Langmuir isotherm (P/A=(KaNCeq)/(1+KaCeq), where P/A represents the molar amount of peptide bound per unit of bacterial surface area, Ka is the association constant of the peptide with the bacterial surface (L/Mol), N is the maximum surface concentration (mol/m^2), and Ceq is the molar concentration of unbound peptide at equilibrium) (Calis et al. (1995) Pharm Res 12(7): 1072-1076). Data plots and curvefits were obtained using Kaleidagraph (Synergy Software).

S. aureus AM1 = assay: Pulldown binding assay, Langmuir isotherm fit, S. aureus; design: species or system Staphylococcus aureus; details: for Langmuir Affinity (Ka): association constant from Langmuir isotherm fit, fluorescein-labeled peptide 0-100 μM; for Monolayer Concentration (N): maximum surface concentration from Langmuir fit
Description: as §1, §2, §3

[3] = Confocal laser scanning microscopy of labeled peptides on tooth sections; type: binding; details: sectioned human tooth, CLSM
Description: The fluorescein-labeled peptides in the initial pilot library were pooled and screened by Confocal Laser Scanning Microscopy as follows. The quadrants of the library were collected into four pools of 9 peptides each. Peptides were screened by exposing the pooled, 5(6)-carboxyfluorescein-labeled peptides to sections taken from human teeth (extracted during normal clinical practice), followed by visualization of the samples by Confocal Laser Scanning Microscopy (CLSM).

CC[C@H](C)[C@H](N)C(=O)O [Ile]
Hydrophobicity (Fauchere and Pliska, 1983) [1]: 1.8

N[C@@H](Cc1c[nH]cn1)C(=O)O [His]
Hydrophobicity (Fauchere and Pliska, 1983) [1]: 0.13

NC(=O)CC[C@H](N)C(=O)O [Gln]
Hydrophobicity (Fauchere and Pliska, 1983) [1]: −0.22

CC(C)C[C@H](N)C(=O)O [Leu]
Hydrophobicity (Fauchere and Pliska, 1983) [1]: 1.7

In-plane refinement C1: in-plane refined library peptide, SEQ ID NO:54 (LVSYVLTQV; synthetic in-plane refinement library peptide C1)
Binding to immobilized S. aureus relative to peptides of the original pilot library [2]: enhanced binding

Orthogonal refinement 2A: orthogonal refined library peptide, SEQ ID NO:63 (IVVILSQQN; synthetic orthogonal refinement library peptide A2)
Langmuir Affinity (Ka) (M. luteus MS2): 1.6 ± 0.7 M^−1 × 10000
KA relative to peptides from the parent library (M. luteus MS2; in words): no significant changes
Nmax relative to peptides from the parent library (M. luteus MS2; in words): no significant changes
Monolayer Concentration (N) (M. luteus MS2): 0.5 ± 0.2 Mol/m^2 × 0.0001
Langmuir Affinity (Ka) (S. aureus AM1): 13 ± 4 M^−1 × 10000
Affinity relative to initial hits / parent peptide of the pilot library (S. aureus AM1; in words): comparable affinity
Nmax relative to pilot library hits (S. aureus AM1; in words): significant increase
Monolayer Concentration (N) (S. aureus AM1): 0.14 ± 0.01 Mol/m^2 × 0.0001

In-plane refinement C4: in-plane refined library peptide, SEQ ID NO:57 (LVKDVLERV; synthetic in-plane refinement library peptide C4)
Binding to immobilized S. aureus relative to peptides of the original pilot library [2]: enhanced binding

CSCC[C@H](N)C(=O)O [Met]
Hydrophobicity (Fauchere and Pliska, 1983) [1]: 1.23

In-plane refinement 3A: in-plane refined library peptide, SEQ ID NO:48 (LIERILQNL; synthetic in-plane refinement library peptide A3)
Binding to S. aureus (fluorescent staining) [2]: binding was seen only to the methicillin/oxacilin-resistant strain of S. aureus
Binding to immobilized S. aureus relative to peptides of the original pilot library [2]: enhanced binding
Langmuir Affinity (Ka) (M. luteus MS2): 8 ± 3 M^−1 × 10000
Nmax relative to peptides from the parent library (M. luteus MS2; in words): sharp reduction
Monolayer Concentration (N) (M. luteus MS2): 0.0047 ± 0.006 Mol/m^2 × 0.0001
Affinity relative to initial hits / parent peptide of the pilot library (S. aureus AM1; in words): increased affinity

In-plane refinement B2: in-plane refined library peptide, SEQ ID NO:51 (IVSQVIQNL; synthetic in-plane refinement library peptide B2)
Binding to immobilized S. aureus relative to peptides of the original pilot library [2]: enhanced binding

NC(=O)C[C@H](N)C(=O)O [Asn]
Hydrophobicity (Fauchere and Pliska, 1983) [1]: −0.6

N[C@@H](Cc1ccc(O)cc1)C(=O)O [Tyr]
Hydrophobicity (Fauchere and Pliska, 1983) [1]: 0.96

N[C@@H](CCC(=O)O)C(=O)O [Glu]
Hydrophobicity (Fauchere and Pliska, 1983) [1]: −0.64

CC(C)[C@H](N)C(=O)O [Val]
Hydrophobicity (Fauchere and Pliska, 1983) [1]: 1.22

Orthogonal refinement 2B: orthogonal refined library peptide, SEQ ID NO:67 (IVVSQQILN; synthetic orthogonal refinement library peptide B2)
Langmuir Affinity (Ka) (M. luteus MS2): 0.4 ± 0.3 M^−1 × 10000
Monolayer Concentration (N) (M. luteus MS2): 0.5 ± 0.3 Mol/m^2 × 0.0001

N[C@@H](CC(=O)O)C(=O)O [Asp]
Hydrophobicity (Fauchere and Pliska, 1983) [1]: −0.77

AMKDAMERM (synthetic peptide with tissue-specific binding to tooth enamel and enamel-proximal region of dentino-enamel junction) [Pilot Library 4F]
Binding to dentin [3]: no obvious binding
Binding to tooth enamel and enamel side of the dentin-enamel junction [3]: clear binding

N[C@@H](Cc1c[nH]c2ccccc12)C(=O)O [Trp]
Hydrophobicity (Fauchere and Pliska, 1983) [1]: 2.25

O=C(O)[C@@H]1CCCN1 [Pro]
Hydrophobicity (Fauchere and Pliska, 1983) [1]: 0.72

In-plane refinement C2: in-plane refined library peptide, SEQ ID NO:55 (LVSQVLQNV; synthetic in-plane refinement library peptide C2)
Binding to immobilized S. aureus relative to peptides of the original pilot library [2]: enhanced binding

In-plane refinement B4: in-plane refined library peptide, SEQ ID NO:53 (IVKDVIERL; synthetic in-plane refinement library peptide B4)
Binding to immobilized S. aureus relative to peptides of the original pilot library [2]: enhanced binding

Pilot Library E4: pilot library 9-mer, SEQ ID NO:36 (AMKDAMERM; synthetic pilot library peptide E4)
Binding to dentin [3]: No significant staining
Binding to tooth enamel and enamel side of the dentin-enamel junction [3]: clear fluorescent staining

C[C@H](N)C(=O)O [Ala]
Hydrophobicity (Fauchere and Pliska, 1983) [1]: 0.31

Pilot Library 3D: pilot library 9-mer, SEQ ID NO:29; became D1 of the in-plane matrix (SEQ ID NO:58) (VASYVATQV; synthetic pilot library peptide D3)
Binding to S. aureus (fluorescent staining) [2]: some of the brightest unique staining
Langmuir Affinity (Ka) (M. luteus MS2): 10 ± 7 M^−1 × 10000
Monolayer Concentration (N) (M. luteus MS2): 0.021 ± 0.004 Mol/m^2 × 0.0001
Langmuir Affinity (Ka) (S. aureus AM1): 6 ± 1 M^−1 × 10000
Monolayer Concentration (N) (S. aureus AM1): 0.18 ± 0.2 Mol/m^2 × 0.0001

Orthogonal refinement 2C: orthogonal refined library peptide, SEQ ID NO:71 (IVSQVIQNL; synthetic orthogonal refinement library peptide C2)
Langmuir Affinity (Ka) (M. luteus MS2): 1.4 ± 0.4 M^−1 × 10000
Monolayer Concentration (N) (M. luteus MS2): 0.12 ± 0.03 Mol/m^2 × 0.0001
Langmuir Affinity (Ka) (S. aureus AM1): 1.1 ± 0.3 M^−1 × 10000
Monolayer Concentration (N) (S. aureus AM1): 7 ± 1 Mol/m^2 × 0.0001

Pilot Library 4C: pilot library 9-mer, SEQ ID NO:24; became A4 of the in-plane matrix (SEQ ID NO:49) (LIKDILERL; synthetic pilot library peptide C4)
Binding to S. aureus (fluorescent staining) [2]: some of the brightest unique staining
Langmuir Affinity (Ka) (M. luteus MS2): 1 ± 0.6 M^−1 × 10000
Monolayer Concentration (N) (M. luteus MS2): 0.10 ± 0.04 Mol/m^2 × 0.0001
Langmuir Affinity (Ka) (S. aureus AM1): 5 ± 1 M^−1 × 10000
Monolayer Concentration (N) (S. aureus AM1): 0.23 ± 0.2 Mol/m^2 × 0.0001

C[C@@H](O)[C@H](N)C(=O)O [Thr]
Hydrophobicity (Fauchere and Pliska, 1983) [1]: 0.26

NCC(=O)O [Gly]
Hydrophobicity (Fauchere and Pliska, 1983) [1]: 0

N[C@@H](Cc1ccccc1)C(=O)O [Phe]
Hydrophobicity (Fauchere and Pliska, 1983) [1]: 1.79

N=C(N)NCCC[C@H](N)C(=O)O [Arg]
Hydrophobicity (Fauchere and Pliska, 1983) [1]: −1.01

NCCCC[C@H](N)C(=O)O [Lys]
Hydrophobicity (Fauchere and Pliska, 1983) [1]: −0.99
